{"source": "paper PMC10708623", "about": "“The Synergistic Effect of GH13 and GH57 GBEs of Petrotoga mobilis Results in α-Glucan Molecules with a Higher Branch Density” (Polymers, 2023)", "target": "T1, PmGBE57 (Petrotoga mobilis, UniProt A9BH92)", "T1 construct": "gene Pmob_0588; full-length codon-optimized gene in pET28a(+), C-terminal His-tag, expressed in E. coli BL21(DE3), Ni-NTA purified", "T1 sequence (A9BH92 1-538)": "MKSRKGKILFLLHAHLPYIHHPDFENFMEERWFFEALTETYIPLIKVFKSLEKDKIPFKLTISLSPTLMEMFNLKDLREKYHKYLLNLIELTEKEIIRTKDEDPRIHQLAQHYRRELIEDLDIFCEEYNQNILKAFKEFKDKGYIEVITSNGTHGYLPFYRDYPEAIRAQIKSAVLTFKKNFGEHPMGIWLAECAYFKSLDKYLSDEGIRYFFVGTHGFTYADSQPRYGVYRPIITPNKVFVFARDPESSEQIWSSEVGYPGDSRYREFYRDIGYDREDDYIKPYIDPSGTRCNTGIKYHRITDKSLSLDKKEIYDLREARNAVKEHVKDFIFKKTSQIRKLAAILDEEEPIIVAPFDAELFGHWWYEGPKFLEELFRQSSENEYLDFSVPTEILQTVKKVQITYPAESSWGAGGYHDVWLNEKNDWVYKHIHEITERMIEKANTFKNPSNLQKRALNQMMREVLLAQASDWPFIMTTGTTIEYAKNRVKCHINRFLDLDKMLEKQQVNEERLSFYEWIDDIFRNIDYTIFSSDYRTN", "assay": "HPAEC-PAD chain length analysis after […] h", "format": "biochemical", "conditions": "1 U^B/g substrate, hydrolysis only, reagent also contains DP6"}
{"smiles": "OC[C@H]1O[C@H](O[C@H]2[C@H](O)[C@@H](O)[C@@H](O[C@H]3[C@H](O)[C@@H](O)[C@@H](O[C@H]4[C@H](O)[C@@H](O)[C@@H](O[C@H]5[C@H](O)[C@@H](O)[C@@H](O[C@H]6[C@H](O)[C@@H](O)[C@@H](O[C@H]7[C@H](O)[C@@H](O)C(O)O[C@@H]7CO)O[C@@H]6CO)O[C@@H]5CO)O[C@@H]4CO)O[C@@H]3CO)O[C@@H]2CO)[C@H](O)[C@@H](O)[C@@H]1O", "note": "(stereo partly shown) [MD7, maltoheptaose]", "values": [{"measurement": "HPAEC-PAD chain length analysis after 24 h", "result": "PmGBE57 showed the ability to utilize the short DP7 chains"}]}
